Results taken from PMC9879991, “Biomolecular condensates formed by designer minimalistic peptides” (Nature Communications, 2023).
No end group written: not given here.

Legend:
GFP = target: T1, GFP (Aequorea victoria, UniProt P42212); assay: Encapsulation efficiency of peptide droplets, GFP payload; format: physicochemical; conditions: C initial 50 µg/ml, 20 mM peptide; for %EE: 20 mM Tris + 0.2 M NaCl pH 8, 15,000 g 10 min, supernatant fluorescence Ex 395/Em 509 nm
T1 construct: purchased Abcam (purchased from Zotal)
Source text: (§1) Next, we studied how peptide composition affects the encapsulation efficiency of the droplets by using GFP, rhodamine B, and fluorescein as fluorescent payload model systems (Fig. 4). We analyzed the encapsulation efficiency of the fluorescent payloads by using both confocal microscopy and absorbance measurements of the payloads in the dilute vs. the condensed phase (Fig. 4a–c). […] WGR-1 has the highest EE of fluorescein. In addition to π-π interactions, WGR-1 might form hydrogen bonding with the hydroxyl groups or electrostatic interactions with the deprotonated carboxylic acid of the dye.
(§2) Stock solutions (1 mM) of the fluorescein and rhodamine B dye molecules were prepared in 20 mM Tris buffer. Coacervate solutions of 20 mM peptide were prepared in 20 mM Tris + 0.2 M NaCl at pH 8. From these, a volume of 148.5 µl was mixed with 1.5 µl of dye solution in a 1.5 ml Eppendorf tube and pipetted. After 10 min the samples were centrifuged at 15,000 × g for 10 min. A volume of 120 μl from the supernatant was collected and vortexed and then the absorbance of 35 μl triplicates was measured (at λ = 490 nm for fluorescein and λ = 555 nm for RhB) in a 384 well black plate by Biotek H1 synergy plate reader (purchased from Lumitron, Israel). For GFP, a 7.5 µl of 20 mM Tris buffer to a 7.5 μl GFP aliquot from the purchased stock solution. The 15 µl of GFP solution was added to 135 µl of peptide solution and was mixed in a 1.5 ml Eppendorf tube and pipetted. The concentration of GFP at the supernatant was measured via fluorescence. All experiments were performed in triplicate. The concentration of the supernatant solutions determinate by calibration curves. Imaging was made to 30 μl of uncentrifuged samples. Efficiency of encapsulation (%EE) was calculated using Eq. 2. 2 %EE=CT−Csup/CT

[1] = Turbidity analysis of peptide LLPS at 20 mM at varying pH; format: physicochemical; conditions: mean, Figure S8, for NMR experiment
Method: 150 μl of 20 mM peptide solutions were prepared in 20 mM Tris buffer. The pH was adjusted to the desired value of 6, 7, 8, 9, 10, and 11 then the turbidity of 35 μl was measured in triplicates at λ = 500 nm using a BioTek H1 synergy plate reader (purchased from Lumitron, Israel).
Supplementary Figure 7. CD analysis of peptides at 1 mM with and without NaCl.
Supplementary Figure 8. a. Turbidity analysis of peptide LLPS at a concentration of 20 mM at varying pH values. WGR-10 contains a Pro/Gln substitution. Each point represents an average of n=3, data are presented as mean values +/- SD b. Optical microscopy images of peptides at 20 mM at pH
10. Scale bar=50 μm. Source data are provided as a Source Data file. […]

[2] = Encapsulation efficiency of peptide droplets, fluorescein payload; format: physicochemical; conditions: C initial 10 µM, 20 mM peptide; for %EE: 20 mM Tris + 0.2 M NaCl pH 8, 15,000 g 10 min, supernatant absorbance 490 nm
Source text: as §1, §2

[3] = solution NMR
Method: pKa values were determined by following the chemical shifts of Trp1-Hα and Trp1-Hβ at pH values of 6.0, 7.0, 7.5, 8.0 and
9.0. The 10 obtained chemical shifts were fitted to the Henderson-Hasselbach equation with the assumption that peak
position is a weighted average of the two end-point chemical shifts; optimization parameters were the two end-point shifts
(representing fully ionized and fully deionized forms of the N-terminal amino group of the peptide. Errors were determined
by Monte Carlo simulations with a measurement error of 0.01 ppm for all chemical shifts.

[4] = Turbidity assay of WGR-1 (10 mM) in citrate, Tris and ammonium bicarbonate buffer; format: physicochemical; conditions: 10 mM peptide, mean of n=3
Method: Supplementary Figure 2. Turbidity assay of WGR-1 (10 mM) in citrate buffer (pH 6-7), Tris buffer (pH 6-10) and ammonium bicarbonate buffer (ABC, pH 9-10). Turbidity was monitored at λ=500 nm.
Source data are provided as a Source Data file. […]
iii) Performed solution NMR analysis to determine the pKa of the terminal amine for each […]
The results of each analysis are detailed below: i) To analyze the effect of the ions in each of the buffers on peptide LLPS, we performed turbidity assay of 10 mM WGR-1 using citrate buffer at pH 6-7, tris buffer at pH 6-10 and ammonium carbonate buffer at pH 9-10, with 200 mM NaCl. For citrate buffer, we measured sample turbidity at pH 6, the optimal value for this buffer, and in addition at pH 7, to compare the effect of citrate and tris on LLPS. Similarly, we analyzed the turbidity in ammonium bicarbonate buffer at pH 9 in additional to pH 10, to compare the effect of tris and ammonium bicarbonate on LLPS.
Higher turbidity is observed at pH 7 with citrate compared to tris and with ammonium bicarbonate at pH 9-10 compared to tris. […]
bicarbonate facilitate LLPS, presumably by reducing the electrostatic repulsion between […]
citrate and -1/-2 for ammonium bicarbonate). […]
In light of these findings and the obvious ion effect, we decided to present the new phase diagrams in tris in main text Figure 2b and the phase diagrams with the different buffers in Supplementary Fig. 1. The text was revised accordingly (see revised manuscript, revised text is highlighted in red). In addition, the turbidity assay of the different buffers was added to […]
Supplementary Fig. 2. […]

[5] = Turbidity analysis of WGR-1 with and without 0.5% FITC-labeled peptide; format: physicochemical; conditions: Tris buffer pH 8, 0.2 M NaCl, mean of n=3

For WGRGRGRGWPGVGY [WGR-1], the differential NaCl-induced change (20 vs 5 mM), average was 3.5 Hz, the “%EE” value (GFP; replicate 1, given as fraction) was 0.8616 and the “%EE” value (GFP; replicate 2, given as fraction) was 0.9526. For the same sequence, the “%EE” value (GFP; replicate 3, given as fraction) was 0.9328, the “Encapsulation efficiency (EE)” value (GFP; 20 mM Tris + 0.2 M NaCl pH 8, supernatant fluorescence, average of replicates, in percent) was 91.5647% and the “Turbidity as asorbance at 500 nm” value ([1]; pH 6) was 0.0085. For the same sequence, the “Turbidity as asorbance at 500 nm” value ([1]; pH 7) was 0.019, the “Turbidity as asorbance at 500 nm” value ([1]; pH 8) was 0.01867 and the “Turbidity as asorbance at 500 nm” value ([1]; pH 9) was 0.03567. The “Turbidity as asorbance at 500 nm” value ([1]; pH 10) was 1.253, the “Turbidity as asorbance at 500 nm” value ([1]; pH 11) was 1.988 and the “%EE” value ([2]; replicate 1, given as fraction) was 0.888. For the same sequence, the “%EE” value ([2]; replicate 2, given as fraction) was 0.8098, the “%EE” value ([2]; replicate 3, given as fraction) was 0.7632 and the “Encapsulation efficiency (EE)” value ([2]; 20 mM Tris + 0.2 M NaCl pH 8, supernatant absorbance 490 nm, mean of n=3, in percent) was 82.0333%. The “pKa of the N-terminal amine group” value ([3]; Trp1-Hα and Trp1-Hβ shifts at pH 6.0, 7.0, 7.5, 8.0, 9.0, Henderson-Hasselbach fit, error by Monte Carlo) was 7.50 ± 0.01, the “pKa of the Tyr14 phenolic ring” value ([3]; pH-induced chemical shift changes) was ~ 10 and the “Turbidity as asorbance at 500 nm” value ([4]; AC (ammonium bicarbonate) buffer, pH 9, 200 mM NaCl) was 2.028. For the same sequence, the “Turbidity as asorbance at 500 nm” value ([4]; AC (ammonium bicarbonate) buffer, pH 10, 200 mM NaCl) was 2.068, the “Turbidity as asorbance at 500 nm” value ([4]; Tris buffer, pH 6, 200 mM NaCl) was 0.007333 and the “Turbidity as asorbance at 500 nm” value ([4]; Tris buffer, pH 7, 200 mM NaCl) was 0.01967. For the same sequence, the “Turbidity as asorbance at 500 nm” value ([4]; Tris buffer, pH 8, 200 mM NaCl) was 0.2073, the “Turbidity as asorbance at 500 nm” value ([4]; Tris buffer, pH 9, 200 mM NaCl) was 1.416 and the “Turbidity as asorbance at 500 nm” value ([4]; Tris buffer, pH 10, 200 mM NaCl) was 1.71. The “Turbidity as asorbance at 500 nm” value ([4]; citrate buffer, pH 6, 200 mM NaCl) was 0.02367, the “Turbidity as asorbance at 500 nm” value ([4]; citrate buffer, pH 7, 200 mM NaCl) was 0.974 and the “Turbidity as asorbance at 350 nm” value ([5]; peptide concentration 10 (mM)) was 0.3393. The “Turbidity as asorbance at 350 nm” value ([5]; peptide concentration 20 (mM)) was 2.135.
